# Numbered stars: 1 amine (or outer) side, 2 acyl side, 3 side chain; on linkers, the order of the positions; unused ones are H or OH. Square brackets hold non-standard residues; d marks the D form. Peptide text beside a SMILES is read from it. ξ: configuration not given here. X1 = N=C1NCC(C(O)C(N[*:1])C(=O)[*:2])N1C1OC(CO)C(O)C(O)C1O; ξEnduracididine(βξ-OH,4'ξ) = N=C1NCC(C(O)C(N)C(=O)O)N1
# Columns and labels:
# Experiment in all cases: In vitro antibacterial evaluation: minimum inhibitory concentration (MIC), broth dilution method
# Type in all cases: cell-based
# Escherichia coli [1] = tested on: Escherichia coli
# Escherichia coli [2] = tested on: Escherichia coli; remark: listed apart in the source
# Method in brief: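 Susceptibility determined by NCCLS-recommended broth dilution (M7-A2), Muller-Hinton II […]. Concentration span 64-0.06 μg/mL, inoculum 5×10^5 CFU/mL. Isolates include strains resistant to methicillin, penicillin and/or vancomycin.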
# Enterococcus sp. = tested on: Enterococcus sp.
# Method in brief: (§1)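 Values are minimum inhibitory concentrations, meaning the smallest antibiotic concentration that stops growth of the organism. They come from broth dilution in Muller-Hinton II […] per NCCLS guidance (M7-A2), using 5×10^5 CFU/mL and concentrations from 64 to 0.06 μg/mL.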
# Staphylococcus sp. = details: 18 hours at 35° C.
# Method in brief: as §1
compound,measurement,setting,value
"N=C1NCC(C(O)C2NC(=O)C(Cc3ccc(O)cc3)NC(=O)C(Cc3ccccc3)NC(=O)CNC(=O)C(CO)NC(=O)C(C(O)C3CNC(=N)N3C3OC(CO)C(O)C(O)C3O)NC2=O)N1 (stereo not drawn) [Example 279a, Cyclo[glycylphenylalanyltyrosyl-3-(2-iminoimidazolidin-4-yl)seryl-3-(3-hexopyranosyl-2-iminoimidazolidin-4-yl)serylseryl]] (cyclo(GFY[ξEnduracididine(βξ-OH,4'ξ)][X1]S); configuration not given here)",MIC Escherichia coli (ATCC 25922),Escherichia coli [1],64 µg/mL
same,MIC Escherichia coli (GC 4559),Escherichia coli [2]; Escherichia coli (GC 4559),64 µg/mL
same,MIC Escherichia coli (GC 4560),Escherichia coli [2]; Escherichia coli (GC 4560),32 µg/mL
same,MIC Enterococcus avium (GC 4558),Enterococcus sp.; Enterococcus avium (GC 4558),>64 µg/mL
same,MIC Enterococcus faecalis (ATCC 29212),Enterococcus sp.; Enterococcus faecalis (ATCC 29212),>64 µg/mL
same,MIC Enterococcus faecalis (GC 4553),Enterococcus sp.; Enterococcus faecalis (GC 4553),>64 µg/mL
same,MIC Enterococcus faecalis (GC 4554),Enterococcus sp.; Enterococcus faecalis (GC 4554),>64 µg/mL
same,MIC Enterococcus faecalis (GC 6189),Enterococcus sp.; Enterococcus faecalis (GC 6189),>64 µg/mL
same,MIC Enterococcus faecium (GC 2243),Enterococcus sp.; Enterococcus faecium (GC 2243),>64 µg/mL
same,MIC Enterococcus faecium (GC 4556),Enterococcus sp.; Enterococcus faecium (GC 4556),>64 µg/mL
same,MIC Enterococcus faecium (GC 4557),Enterococcus sp.; Enterococcus faecium (GC 4557),64 µg/mL
same,MIC Coagulase Negative Staphylococcus (GC 4547),Staphylococcus sp.,64 µg/mL
same,MIC Coagulase Negative Staphylococcus (GC 4547),Staphylococcus sp.; broth dilution,64 µg/mL
same,MIC Coagulase Negative Staphylococcus (GC 4548),Staphylococcus sp.,>64 µg/mL
same,MIC Coagulase Negative Staphylococcus (GC 4548),Staphylococcus sp.; broth dilution,>64 µg/mL
same,MIC Coagulase Negative Staphylococcus (GC 4549),Staphylococcus sp.,64 µg/mL
same,MIC Coagulase Negative Staphylococcus (GC 4549),Staphylococcus sp.; broth dilution,64 µg/mL
same,MIC Coagulase Negative Staphylococcus (GC 4551),Staphylococcus sp.,>64 µg/mL
same,MIC Coagulase Negative Staphylococcus (GC 4551),Staphylococcus sp.; broth dilution,>64 µg/mL
same,MIC Coagulase Negative Staphylococcus (GC 6257),Staphylococcus sp.,64 µg/mL
same,MIC Coagulase Negative Staphylococcus (GC 6257),Staphylococcus sp.; broth dilution,64 µg/mL
same,MIC Staphylococcus aureus (ATCC 29213),Staphylococcus sp.,>64 µg/mL
same,MIC Staphylococcus aureus (ATCC 29213),Staphylococcus sp.; broth dilution,>64 µg/mL
same,MIC Staphylococcus aureus (GC 1131),Staphylococcus sp.,>64 µg/mL
same,MIC Staphylococcus aureus (GC 1131),Staphylococcus sp.; broth dilution,>64 µg/mL
same,MIC Staphylococcus aureus (GC 3051),Staphylococcus sp.,>64 µg/mL
same,MIC Staphylococcus aureus (GC 3051),Staphylococcus sp.; broth dilution,>64 µg/mL
same,MIC Staphylococcus aureus (GC 3053),Staphylococcus sp.,>64 µg/mL
same,MIC Staphylococcus aureus (GC 3053),Staphylococcus sp.; broth dilution,>64 µg/mL
same,MIC Staphylococcus aureus (GC 4541),Staphylococcus sp.,>64 µg/mL
same,MIC Staphylococcus aureus (GC 4541),Staphylococcus sp.; broth dilution,>64 µg/mL
same,MIC Staphylococcus aureus (GC 4542),Staphylococcus sp.,>64 µg/mL
same,MIC Staphylococcus aureus (GC 4542),Staphylococcus sp.; broth dilution,>64 µg/mL
same,MIC Staphylococcus aureus (GC 4544),Staphylococcus sp.,>64 µg/mL
same,MIC Staphylococcus aureus (GC 4544),Staphylococcus sp.; broth dilution,>64 µg/mL
same,MIC Staphylococcus aureus (GC 4545),Staphylococcus sp.,>64 µg/mL
same,MIC Staphylococcus aureus (GC 4545),Staphylococcus sp.; broth dilution,>64 µg/mL
same,MIC Staphylococcus aureus-SMITH (GC 4543),Staphylococcus sp.,>64 µg/mL
same,MIC Staphylococcus aureus-SMITH (GC 4543),Staphylococcus sp.; broth dilution,>64 µg/mL
same,MIC Staphylococcus haemolyticus (GC 4546),Staphylococcus sp.,64 µg/mL
same,MIC Staphylococcus haemolyticus (GC 4546),Staphylococcus sp.; broth dilution,64 µg/mL

# — US8247211B2, “Glycopeptide antibiotics” (American Cyanamid Company, priority 2001, dated 2012)
